Several values for one entry are separate records, joined by “and”; a condition that tells them apart may be missing. Identical values can stand only once. Numbers after ± are expanded uncertainties.

viscosity, speed of sound and mass density data for five compounds are collected here from the NIST ThermoML archive (doi:10.1016/j.jct.2008.07.010).

The conditions of data set [1]: 101 kPa, Liquid; for viscosity: Capillary tube (Ostwald / Ubbelohde) method; for speed of sound: Sing-around technique in a fixed-path interferometer; for mass density: Vibrating tube method.
Data set [2] can be described thus: xn = mol fraction of the nth substance listed. The settings on record: 101 kPa, Liquid, x1 = 1; for viscosity: Capillary tube (Ostwald / Ubbelohde) method; for speed of sound: Sing-around technique in a fixed-path interferometer; for mass density: Vibrating tube method.

Regarding `CCCCCCCCCCCCCCCC` [hexadecane], in data set [1] (298.15 K), the viscosity is listed as 3.041 ± 0.026 mPa·s, the speed of sound is reported as 1338.6 ± 1.3 m/s and the mass density was found to be 770.456 ± 0.24 kg/m3. Also, in data set [1] (303.15 K), the viscosity is recorded as 2.706 ± 0.024 mPa·s, the speed of sound is listed as 1320 ± 1.3 m/s and the mass density is reported as 766.981 ± 0.24 kg/m3. In addition, in data set [1] (308.15 K), the viscosity was determined as 2.409 ± 0.022 mPa·s, the speed of sound is given as 1301.7 ± 1.3 m/s and the mass density was found to be 763.52 ± 0.24 kg/m3.

`CC(C)O` [propan-2-ol]: in data set [1] (298.15 K), the viscosity is listed as 2.061 ± 0.018 mPa·s; the speed of sound is 1139.3 ± 0.85 m/s and 1139.3 ± 0.9 m/s; the mass density came to 781.152 ± 0.15 kg/m3. Also, in data set [1] (303.15 K), the viscosity was found to be 1.758 ± 0.015 mPa·s, the speed of sound came out at 1122 ± 0.8 m/s and the mass density is 776.87 ± 0.15 kg/m3. In addition, in data set [1] (308.15 K), the viscosity is given as 1.573 ± 0.013 mPa·s, the speed of sound was 1104.5 ± 0.8 m/s and the mass density is listed as 772.511 ± 0.15 kg/m3.

For the compound `CC(C)O` [propan-2-ol] + CC(C)CCCC(C)CCCC(C)CCCCC(C)CCCC(C)CCCC(C)C, in data set [2] (298.15 K), the viscosity was 2.061 ± 0.018 mPa·s, the speed of sound turned out to be 1139.3 ± 0.9 m/s and the mass density is listed as 781.152 ± 0.15 kg/m3. In addition, in data set [2] (303.15 K), the viscosity was 1.758 ± 0.015 mPa·s, the speed of sound was determined as 1122 ± 0.8 m/s and the mass density came out at 776.87 ± 0.15 kg/m3. In addition, in data set [2] (308.15 K), the viscosity was determined as 1.573 ± 0.013 mPa·s, the speed of sound is 1104.5 ± 0.8 m/s and the mass density came out at 772.511 ± 0.15 kg/m3.

As to `CC(C)O` [propan-2-ol] + CCCCCCCCCCCCCCCC, in data set [2] (298.15 K), the viscosity is on record as 2.061 ± 0.018 mPa·s, the speed of sound is 1139.3 ± 0.85 m/s and the mass density was 781.152 ± 0.15 kg/m3. Besides, in data set [2] (303.15 K), the viscosity is recorded as 1.758 ± 0.015 mPa·s, the speed of sound stood at 1122 ± 0.8 m/s and the mass density was determined as 776.87 ± 0.15 kg/m3. Moreover, in data set [2] (308.15 K), the viscosity stood at 1.573 ± 0.013 mPa·s, the speed of sound was 1104.5 ± 0.8 m/s and the mass density stood at 772.511 ± 0.15 kg/m3.

Consider `CC(C)CCCC(C)CCCC(C)CCCCC(C)CCCC(C)CCCC(C)C` (stereo not given) [2,6,10,15,19,23-hexamethyltetracosane], for which, in data set [1] (298.15 K), the viscosity turned out to be 28.26 ± 0.31 mPa·s, the speed of sound is given as 1381.9 ± 1.3 m/s and the mass density is 805.122 ± 0.24 kg/m3. Besides, in data set [1] (303.15 K), the viscosity came to 22.09 ± 0.26 mPa·s, the speed of sound is reported as 1364.1 ± 1.3 m/s and the mass density is 801.912 ± 0.24 kg/m3. In data set [1] (308.15 K), the viscosity is 17.77 ± 0.21 mPa·s, the speed of sound came out at 1346.5 ± 1.3 m/s and the mass density is 798.709 ± 0.24 kg/m3.
